Data as given in patent US20240041042A1, “1-(PYRIDYL)-5-AZINYLPYRAZOLE DERIVATIVES, AND THEIR USE FOR CONTROL OF UNDESIRED PLANT GROWTH” (Bayer Aktiengesellschaft, priority 2020, published 2024).
Like-named read-outs stand apart in the source and are kept apart here.

Experiments:
Format in all cases: in vivo
[1] = system: Amaranthus retroflexus (AMARE); assay: Post-emergence herbicidal action against AMARE
Summary of the method: (§1)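 Rates were 320 g/ha or below, applied as aqueous WP/EC spray with 0.5% additive (600 l/ha) onto one-leaf-stage plants. About 3 weeks later in the greenhouse, damage was scored visually against untreated plants on a 0–100% scale, where 100% means plants died.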

Zea mays (ZEAMX) [2] = conditions: crop plant compatibility, effect vs untreated controls
Summary of the method: (§2)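 Test crops were treated 2 to 3 weeks after sowing, once they reached one leaf, by spraying compound in water with 0.5% additive at 600 l/ha. Visual scoring compared them with untreated controls roughly 3 weeks on, and appendices a, b and c denote different doses.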

Oryza sativa (ORYSA) [3] = conditions: crop plant compatibility, effect in comparison to untreated controls
Summary of the method: as §2

[4] = system: Matricaria inodora (MATIN); assay: Pre-emergence herbicidal action against MATIN
Summary of the method: (§3)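 Pre-emergence soil-surface spray, WP/EC formulation, 0.5% additive, 600 l/ha water, rates of 320 g/ha or lower. Greenhouse, ~3 wk. Visual score, % of untreated control (100% = plants dead, 0% = like control).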

[5] = system: Polygonum convolvulus (POLCO); assay: Pre-emergence herbicidal action against POLCO; conditions: dosage 320 g/ha
Summary of the method: as §3

Viola tricolor (VIOTR) [6] = assay: Pre-emergence herbicidal action against VIOTR
Summary of the method: as §3

[7] = system: Pharbitis purpurea (PHBPU); assay: Pre-emergence herbicidal action against PHBPU; conditions: dosage 320 g/ha
Summary of the method: as §3

[8] = system: Pharbitis purpurea (PHBPU); assay: Post-emergence herbicidal action against PHBPU; conditions: dosage 320 g/ha
Summary of the method: as §1

Avena fatua (AVEFA) [9] = assay: Pre-emergence herbicidal action against AVEFA; conditions: 320 g/ha, visual scoring after about 3 weeks vs untreated controls
Summary of the method: as §3

Lolium rigidum (LOLRI) [10] = assay: Post-emergence herbicidal action against LOLRI; conditions: dosage 320 g/ha
Summary of the method: as §1

Viola tricolor (VIOTR) [11] = assay: Post-emergence herbicidal action against VIOTR
Summary of the method: as §1

[12] = system: Abutilon theophrasti (ABUTH); assay: Pre-emergence herbicidal action against ABUTH; conditions: 100% = plants have died
Summary of the method: as §3

Zea mays (ZEAMX) [13] = conditions: pre-emergence, crop plant compatibility, in comparison to untreated controls
Summary of the method: (§4)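 Crop injury rated visually in percent against untreated plants roughly 3 weeks after treatment (0% no effect, 100% plants dead). Compounds, as WP or EC with 0.5% additive in 600 l/ha water, were applied to the covering soil right after sowing; greenhouse growth. Suffixes a, b, c denote different dosages.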

Brassica napus (BRSNW) = conditions: crop plant compatibility, in comparison to untreated controls
Summary of the method: as §4

[14] = system: Echinochloa crus-galli (ECHCG); assay: Post-emergence herbicidal action against ECHCG
Summary of the method: as §1

[15] = system: Alopecurus myosuroides (ALOMY); assay: Pre-emergence herbicidal action against ALOMY; conditions: 320 g/ha; scored visually after about 3 weeks; 100% = plants have died
Summary of the method: as §3

[16] = system: Verconica persica (VERPE); assay: Post-emergence herbicidal action against VERPE
Summary of the method: as §1

[17] = system: Polygonum convolvulus (POLCO); assay: Post-emergence herbicidal action against POLCO
Summary of the method: as §1

[18] = system: Amaranthus retroflexus (AMARE); assay: Pre-emergence herbicidal action against AMARE; conditions: visual scoring after about 3 weeks vs untreated controls
Summary of the method: as §3

[19] = system: Abutilon theophrasti (ABUTH); assay: Post-emergence herbicidal action against ABUTH; conditions: visual rating about 3 weeks after treatment vs untreated controls (100% = plants have died, 0% = like control plants)
Summary of the method: as §1

Lolium rigidum (LOLRI) [20] = assay: Pre-emergence herbicidal action against LOLRI; conditions: dosage 320 g/ha
Summary of the method: as §3

[21] = system: Alopecurus myosuroides (ALOMY); assay: Post-emergence herbicidal action against ALOMY; conditions: visual rating about 3 weeks after treatment vs untreated controls (100% = plants have died, 0% = like control plants)
Summary of the method: as §1

[22] = system: Digitaria sanguinalis (DIGSA); assay: Pre-emergence herbicidal action against DIGSA; conditions: dosage 320 g/ha
Summary of the method: as §3

[23] = system: Triticum aestivum (TRZAS); conditions: crop plant compatibility, effect vs untreated controls
Summary of the method: as §2

Oryza sativa (ORYSA) [24] = conditions: pre-emergence, crop plant compatibility, in comparison to untreated controls
Summary of the method: as §4

[25] = system: Triticum aestivum (TRZAS); conditions: pre-emergence, crop plant compatibility, in comparison to untreated controls
Summary of the method: as §4

Setaria viridis (SETVI) [26] = assay: Pre-emergence herbicidal action against SETVI; conditions: dosage 320 g/ha
Summary of the method: as §3

Avena fatua (AVEFA) [27] = assay: Post-emergence herbicidal action against AVEFA; conditions: visual rating about 3 weeks after treatment
Summary of the method: as §1

Setaria viridis (SETVI) [28] = assay: Post-emergence herbicidal action against SETVI; conditions: dosage 320 g/ha
Summary of the method: as §1

[29] = 320 g/ha, visual rating about 3 weeks after treatment

| Compound | Post-emergence action against AMARE in % [1, 29] [%] | Post-emergence action against ZEAMX in % (Zea mays (ZEAMX) [2]; 80 g/ha) [%] | Post-emergence action against ORYSA in % (Oryza sativa (ORYSA) [3]; 80 g/ha) [%] | Pre-emergence action against POLCO in % [5] [%] | Pre-emergence action against VIOTR in % (Viola tricolor (VIOTR) [6]; 320 g/ha, Viola tricolor) [%] | Pre-emergence action against VIOTR in % (Viola tricolor (VIOTR) [6]; dosage 80 g/ha) [%] | Pre-emergence action against AVEFA in % (Avena fatua (AVEFA) [9]) [%] | Post-emergence action against LOLRI in % (Lolium rigidum (LOLRI) [10]) [%] | Post-emergence action against VIOTR in % (Viola tricolor (VIOTR) [11]; 320 g/ha) [%] | Pre-emergence action against ZEAMX in % (Zea mays (ZEAMX) [13]; 80 g/ha) [%] | Pre-emergence action against ZEAMX in % (Zea mays (ZEAMX) [13]; 320 g/ha) [%] | Pre-emergence action against BRSNW in % (Brassica napus (BRSNW); 80 g/ha) [%] | Post-emergence action against ECHCG in % ([14]; dosage 80 g/ha) [%] | Post-emergence action against ECHCG in % ([14]; dosage 320 g/ha) [%] | Pre-emergence action against ALOMY [15] [%] | Post-emergence action against VERPE in % ([16]; 320 g/ha, VERPE) [%] | Post-emergence action against POLCO in % ([17]; dosage 320 g/ha) [%] | Pre-emergence action against AMARE in % ([18]; 320 g/ha) [%] | Post-emergence action against ABUTH in % ([19]; 320 g/ha) [%] | Pre-emergence action against ORYSA in % (Oryza sativa (ORYSA) [24]; 80 g/ha) [%] | also measured |
| --- | --- | --- | --- | --- | --- | --- | --- | --- | --- | --- | --- | --- | --- | --- | --- | --- | --- | --- | --- | --- | --- |
| CCOC(=O)COc1nn(-c2ncccc2C(F)(F)F)c(-c2ccc(F)nc2)c1Cl [Example I-325] | 80 | 0 | 20 | 90 | 100 | 90 | 100 | 90 | 90 | 0 | 0 | 20 | 90 | 90 | 100 | 90 | 80 | 100 | 90 | – | Pre-emergence action against MATIN in % ([4]; dosage 80 g/ha): 100%; Pre-emergence action against MATIN in % ([4]; dosage 320 g/ha): 100%; Pre-emergence action against PHBPU in % [7]: 80%; Post-emergence action against PHBPU in % [8]: 80%; Post-emergence action against VIOTR in % (Viola tricolor (VIOTR) [11]; 80 g/ha): 90%; Pre-emergence action against ABUTH ([12]; 80 g/ha, scored visually after about 3 weeks vs untreated controls, 0% = like control plants): 90%; Pre-emergence action against ABUTH ([12]; Dosage column 320 g/ha (title prints 3200 g/ha), scored visually after about 3 weeks): 90%; Post-emergence action against VERPE in % ([16]; dosage 80 g/ha): 80%; Pre-emergence action against AMARE in % ([18]; 80 g/ha): 100%; Post-emergence action against ABUTH in % ([19]; 80 g/ha): 80%; Pre-emergence action against LOLRI in % (Lolium rigidum (LOLRI) [20]): 100%; Post-emergence action against ALOMY in % ([21]; 80 g/ha): 80%; Post-emergence action against ALOMY in % ([21]; 320 g/ha): 100% |
| COC(=O)C=CC(C)NC(=O)COc1nn(-c2ccccn2)c(-c2ccc(F)nc2)c1Br (stereo not shown) [Example I-297] | – | – | – | – | – | – | – | – | – | 10 | – | 20 | – | – | 80 | 80 | – | 80 | – | 10 | Pre-emergence action against DIGSA in % [22]: 80%; Post-emergence action against ZEAMX in % (Zea mays (ZEAMX) [2]; 320 g/ha): 0%; Post-emergence action against TRZAS in % ([23]; 80 g/ha): 10%; Pre-emergence action against ORYSA in % (Oryza sativa (ORYSA) [24]; 320 g/ha): 20% |
| O=C(O)C1CCN(C(=O)COc2nn(-c3ccccn3)c(-c3cncc(F)c3)c2Br)C1 (racemic) [Example I-63] | – | 0 | 0 | – | – | – | – | – | – | 10 | 10 | 0 | – | – | – | – | – | – | – | 0 | Post-emergence action against ZEAMX in % (Zea mays (ZEAMX) [2]; 320 g/ha): 10%; Post-emergence action against TRZAS in % ([23]; 80 g/ha): 0%; Post-emergence action against TRZAS in % ([23]; 320 g/ha): 0%; Post-emergence action against ORYSA in % (Oryza sativa (ORYSA) [3]; 320 g/ha): 10%; Pre-emergence action against TRZAS in % ([25]; 80 g/ha): 0%; Pre-emergence action against TRZAS in % ([25]; 320 g/ha): 0%; Pre-emergence action against BRSNW in % (Brassica napus (BRSNW); 320 g/ha): 20%; Pre-emergence action against ORYSA in % (Oryza sativa (ORYSA) [24]; 320 g/ha): 0% |
| O=C(O)COc1nn(-c2ncccc2Cl)c(-c2ccc(F)nc2)c1Br [Example I-26] | 80 | 0 | – | 90 | 100 | 100 | 90 | 80 | 80 | 0 | – | 20 | 80 | 80 | 100 | 80 | 80 | 100 | 90 | 0 | Post-emergence action against AMARE in % ([1]; 80 g/ha, visual rating about 3 weeks after treatment vs untreated controls (100% = plants have died, 0% = like control plants)): 80%; Pre-emergence action against SETVI in % (Setaria viridis (SETVI) [26]): 100%; Post-emergence action against AVEFA in % (Avena fatua (AVEFA) [27]; 80 g/ha): 100%; Post-emergence action against AVEFA in % (Avena fatua (AVEFA) [27]; 320 g/ha): 100%; Pre-emergence action against TRZAS in % ([25]; 80 g/ha): 0%; Post-emergence action against POLCO in % ([17]; dosage 80 g/ha): 80%; Post-emergence action against SETVI in % (Setaria viridis (SETVI) [28]): 90%; Post-emergence action against ALOMY in % ([21]; 320 g/ha): 90% |
